# From patent publication US11324798B2, “Materials and methods for treatment of inflammation” (CYTOGEL PHARMA, LLC, priority 2010, dated 2022)
# Test system: mu opiate receptor
# Test: Binding to the mu opiate receptor
substance,measurement,value
H-Tyr-Pro-Trp-Phe-NH2 [SEQ ID NO:1],Potency for the mu opiate receptor,very potent
